According to patent publication US20230017266A1, “Cyclooxygenase-2 Inhibition for the Treatment of SAA-high Asthma” (THE USA, AS REPRESENTED BY THE SECRETARY, DEPT. OF HEALTH …, priority 2019, published 2023):

What was measured:
PTGS2 mRNA = PTGS2 mRNA levels in CD14+ monocytes cultured with HDL+SAA1 (qRT-PCR); type: cell-based, human; conditions: 24 h
Description: (§1) Quantitative RT-PCR (qRT-PCR). Total RNA was purified using the Direct-Zol™ RNA MiniPrep kit and total RNA (100 ng) was reverse transcribed into cDNA using the High-Capacity cDNA Reverse Transcription Kit (Applied Biosystems, Foster City, Calif.). Polymerase chain reactions (PCR) were performed on duplicate cDNA samples using TaqMan Universal PCR Master Mix, FAM-MGB dye-labeled Taqman® PTGS2 probe (Assay ID Hs00153133_m1, catalog #4331182), and a 7900 Real Time PCR System running Sequence Detector version 2.4 software, all from Applied Biosystems (Foster City, Calif.). Gene expression was quantified relative to expression of 18S rRNA using the control sample as a calibrator to calculate the difference in Ct values (ΔΔCt) and presented as relative mRNA expression. For quantification of miR-155-5p expression, miRNA present in total RNA (10 ng) was converted to cDNA using the microRNA cDNA Reverse Transcription kit (Applied Biosystems, Foster City, Calif.). Polymerase chain reaction (PCR) was performed on duplicate cDNA samples using TaqMan Universal PCR Master Mix, Taqman® MicroRNA Assay for has-miR-155-5p (Assay ID #002623, catalog #4427975), and a 7900HT Fast Real-Time PCR System running Sequence Detector version 2.4 software (ThermoFisher Scientific, Waltham, Mass.). miR-155-5p expression was quantified relative to expression of U6 snRNA using the control sample as calibrator to calculate the difference in Ct values (ΔΔCt) and presented as relative mRNA expression.
miR-155 Inhibition. CD14+ monocytes were suspended in 4D human monocyte Nucleofector™ solution (Amaxa™ P3 Primary Cell 4D-Nucleofector™ X kit, catalog #V4XP-3024, Lonza, Walkersville, Md.) to a final concentration of 2×10^6 cells/100 […] at room temperature. […] CD14^+ monocytes were plated at a density of 4×10^4 cells/well in a 96-well plate to collect culture media for cytokine quantification and the remaining cells were plated in a 24-well plate to isolate total RNA for qRT-PCR. After 72 h, cytokine secretion was quantified by ELISA and mRNA levels were quantified by qRT-PCR.

miR-155-5p = miR-155-5p levels in CD14+ monocytes cultured with HDL+SAA1 (qRT-PCR); type: cell-based, human; conditions: 24 h
Description: as §1, with “Gene expression was quantified relative to expression of 18S rRNA using the control sample as a calibrator to calculate the difference in Ct values (ΔΔCt) and presented as relative mRNA expression.” left out

Clc1cccc(-c2nnnn2Cc2cccnc2)c1Cl [A438079]
HDL+SAA1-mediated increases in PTGS2 mRNA (PTGS2 mRNA; A438079 10 μM): attenuated | HDL+SAA1-mediated increases in miR-155-5p (miR-155-5p; A438079 10 μM): significantly reduced

Cc1ccc(S(=O)(=O)/C=C/C#N)cc1 [BAY 11-7082]
HDL+SAA1-mediated increases in PTGS2 mRNA (PTGS2 mRNA; BAY-11-7082 10 μM): prevented | HDL+SAA1-mediated increases in miR-155-5p (miR-155-5p; BAY-11-7082 10 μM): attenuated

NC(=O)Nc1sc(-c2ccc(F)cc2)cc1C(N)=O [TPCA1]
HDL+SAA1-mediated increases in PTGS2 mRNA (PTGS2 mRNA; TPCA-1 1 μM): prevented | HDL+SAA1-mediated increases in miR-155-5p (miR-155-5p; TPCA-1 1 μM): attenuated
